From patent US7977474B2, “Uses of porphyrin compounds” (Destiny Pharma Ltd., priority 2004, dated 2011)
Like-named read-outs stand apart in the source and are kept apart here.

Experiments:
[1] = system: Staphylococcus aureus (methicillin sensitive); assay: MIC and MBC, reference strains and clinical isolates (Example C); assay type: cell-based
Description: (§1) The Minimum Inhibitory Concentrations (MIC's) for Compound 10, over a range of reference strains and clinical isolates, were determined using IsoSensitest® broth and Minimum Bactericidal concentrations (MBC's) determined by subculture onto Columbia blood agar.
(§2) • 1. A 5 mg/ml stock solution of Compound 10 was made up in water • 2. A series of dilutions were undertaken to produce a range of concentrations between 32-0.001 mg/L • 3. The test microorganisms were grown up overnight in IsoSensitest® broth • 4. The cultures were then diluted with fresh broth to a final concentration of 10^4 organisms/ml and placed on a shaker for 90 minutes at 37° C. • 5. 90 μl of the broth culture containing the microorganisms were transferred to each of 12 wells in a row in a microtitre tray and repeated in a control tray—four organisms per tray. • 6. 90 μL of the appropriate Compound 10 dilution was then added to each well containing organisms to give a final dilution series from 16 mg/L to 0.0005 mg/L • 7. The solutions were mixed well and incubated in the dark for 24 hours • 8. […] The MBC values were recorded after overnight incubation of the subcultures. • 10. Controls of uninoculated broth and broth plus inoculum were undertaken for each organism in each tray Results

[2] = system: Staphylococcus epidermidis (methicillin sensitive); assay: as above; assay type: cell-based; settings: 37453, clinical isolate
Description: as §1, §2

Enterococcus faecalis = assay: as above; assay type: cell-based
Description: as §1, §2

[3] = system: Staphylococcus epidermidis (methicillin resistant); assay: as above; assay type: cell-based; settings: for MIC: Staphylococcus epidermidis, dark 24 hours
Description: as §1, §2

Enterococcus faecium = assay: as above; assay type: cell-based
Description: as §1, §2

[4] = Acute dermal toxicity test (OECD 402) (Example G); assay type: in vivo; settings: 3.2 mM in a topical formulation
Description: Compound 10 was tested at 3.2 mM in a topical formulation in a standard acute dermal toxicity test to determine if any clinical or histological toxicity for the compound could be detected.
The acute toxicity protocol was based on OECD Guidelines for the testing of chemicals/Section 4—Health Effects Test Number 402: Acute Dermal Toxicity.

[5] = system: Staphylococcus aureus BAA-44, a multi-drug resistant Methicillin Resistant Staphylococcus aureus (MRSA) strain; assay: MIC and MBC of Compound 10 in the absence of light (Example B); assay type: cell-based
Text: The minimum inhibitory concentration (MIC) for an antimicrobial agent against a specific microorganism is defined as the minimum concentration of an antibacterial agent where no apparent visible growth of the organism is observed (FDA definition of Minimum Inhibitory Concentration). MIC's are typically determined using concentrations derived traditionally from serial twofold dilutions (National Committee for Clinical Laboratory Standards (NCCLS) Handbook M7-A5: “Methods for Dilution Antimicrobial Susceptibility Tests for Bacteria that Grow Aerobically; Approved Standard—5th Edition” Volume 20 Number 2. January 2000). The MIC for Compound 10 in the absence of light was investigated, using a protocol based on the MIC protocol produced by the NCCLS (National Committee for Clinical Laboratory Standards (NCCLS) Handbook M7-A5, supra).
Staphylococcus aureus BAA-44, a multi-drug resistant Methicillin Resistant Staphylococcus aureus (MRSA) strain obtained from the ATCC catalogue, was used in this study. The following concentrations of Compound 10 were investigated: 0.764; 0.382: 0.191; 0.0955; 0.0478; 0.0239, 0.0119, 0.00597, 0.00298, 0.00149, 0.00075 & 0.00037 μg/mL. Stock solutions were made up in distilled water and serial dilutions undertaken of this to produce the required concentrations immediately prior to use.
At least 3 to 5 well-isolated colonies of the same morphological type were selected from an agar plate culture and the growth transferred to a tube containing 100 mL of Isosensitest Broth and the broth culture is incubated at 37° C. overnight. The culture was then be diluted to a final density of 10^4 cells/mL with fresh Isosensitest Broth and incubated with shaking at 37° C. until the cells entered exponential growth.
0.09 mL of the adjusted inoculum was transferred into each of 24 wells of a polystyrene 96 well microtiter plate. A control well of bacteria alone in the presence of growth medium alone was included (as a positive control).
0.09 mL of the Compound 10 stock solutions from the dilution series were pipetted into the relevant well for the microtiter plates and incubated in the dark at 37° C. and the plates examined after 24 hours incubation to determine the turbidity in each well.

[6] = system: Staphylococcus aureus (methicillin resistant); assay: MIC (IsoSensitest broth) and MBC (subculture on blood agar), reference strains and clinical isolates (Example C); assay type: cell-based
Description: as §1, §2

[7] = system: normal human dermal fibroblasts (NHDF); assay: Toxicity against human skin cells, MTT-assay (Example D); assay type: cell-based; settings: 0.01-10 μM, 5 min, 1 h and 4 h incubation, then 24 h in the dark
Description: NHDF were incubated with different concentrations of Compound 10 for 5 min, 1 h and 4 h (0 μM, 0.01 μM, 0.1 μM, 1.0 μM, 10 μM). Cells were then incubated for 24 h in the dark. Toxicity was tested by standard MTT-assay. Cell viability was normalised to one, which means, the values of control cells were normalised to one. Grey dotted line: 5 min incubation; black dotted: 1 h incubation; black line: 4 h incubation; (n=3, mean±SD).
(§3) Test compounds were screened for toxicity against cultured human skin cells using normal human epidermal keratinoctes (NHEK) and normal human dermal fibroblasts (NHDF), purchased from CellSystems Biotechnologie GmbH, Germany.
(§4) The NHEK and NHDF cells were used between passages 3 and 10. The cells were seeded with 7.5 and/or 15×10^4 cells/well (microtitre plate) and were allowed to attach overnight in an incubator (37° C., 5% CO2). After incubation with different concentrations of the selected photosensitisers for various times, the cells were incubated for 24 hours in the dark.
(§5) Toxicity was tested by standard MTT-assay (Mossman et al., 1983 J. Immunological Methods 65: 55-63). MTT is an indicator of metabolically active cells. Dependent on enzyme activity in mitochondria a colour reaction can be visualised, which can be measured by ELISA reader (540 nm). […]

[8] = system: normal human epidermal keratinocytes (NHEK); assay: as above; assay type: cell-based; settings: 0.01-10 μM, 5 min, 1 h and 4 h incubation, then 24 h in the dark
Description: NHEK were incubated with different concentrations of Compound 10 for 5 min, 1 h and 4 h (0 μM, 0.01 μM, 0.1 μM, 1.0 μM, 10 μM). Cells were then incubated for 24 h in the dark. Toxicity was tested by standard MTT-assay. Cell viability was normalised to one, which means, the values of control cells were normalised to one. Red dotted line: 5 min incubation; black dotted: 1 h incubation; blue dotted: 4 h incubation only; (n=3, mean±SD).
as §3, §4, §5

Escherichia coli = settings: visible light after incubation; Valduga et al., 1999; cited from earlier work

C[N+](C)(C)CCCOc1ccc(-c2c3nc(cc4ccc([nH]4)c(-c4ccc(OCCC[N+](C)(C)C)cc4)c4nc(cc5ccc2[nH]5)C=C4)C=C3)cc1 [Compound 10, 5,15-bis-[4-(3-Trimethylammonio-propyloxy)-phenyl]-porphyrin dichloride]
MBC ([1]; ATCC25923, ATCC 25923): 1 µg/mL | MIC ([1]; ATCC25923, ATCC 25923, dark 24 hours): 0.5 µg/mL | MBC ([1]; NCTC6571, NCTC 6571): 0.5 µg/mL | MIC ([1]; NCTC6571, NCTC 6571, dark 24 hours): 0.5 µg/mL | MBC [2]: 0.5 µg/mL | MIC ([2]; dark 24 hours): 0.5 µg/mL | MBC (Enterococcus faecalis; ATCC29212, ATCC 29212): > 1 µg/mL | MBC (Enterococcus faecalis; E3, clinical isolate): 1 µg/mL | MIC (Enterococcus faecalis; E3, clinical isolate, dark 24 hours): 0.5 µg/mL | MBC (Enterococcus faecalis; E4, clinical isolate): 0.5 µg/mL | MBC (Enterococcus faecalis; E10, clinical isolate): 1 µg/mL | MBC (Enterococcus faecalis; E37, clinical isolate): 1 µg/mL | MBC ([3]; Staphylococcus epidermidis, 33659, clinical isolate): 1 µg/mL | MBC ([3]; Staphylococcus epidermidis, 33759, clinical isolate): 1 µg/mL | MBC ([3]; Staphylococcus epidermidis, 36572, clinical isolate): 0.25 µg/mL | MBC ([3]; Staphylococcus epidermidis, 38808, clinical isolate): 0.5 µg/mL | MIC ([3]; 24 h, 33659, clinical isolate): 0.5 µg/mL | MIC ([3]; 24 h, 33759, clinical isolate): 0.5 µg/mL | MIC ([3]; 24 h, 36572, clinical isolate): 0.25 µg/mL | MIC ([3]; 24 h, 38808, clinical isolate): 0.5 µg/mL | MBC (Enterococcus faecium; E1, clinical isolate): 1 µg/mL | MIC (Enterococcus faecium; E1, clinical isolate, dark 24 hours): 0.5 µg/mL | MBC (Enterococcus faecium; E5, clinical isolate): 1 µg/mL | MBC (Enterococcus faecium; E19, clinical isolate): 0.5 µg/mL | MBC (Enterococcus faecium; E44, clinical isolate): 0.5 µg/mL | MBC (Enterococcus faecium; NCTC12204, NCTC 12204): 1 µg/mL | histological toxicology of major organs [4]: No histological toxicology of any major organ (including the skin) was observed | acute toxic effect ([4]; dermal): does not result in any acute toxic effect | clinical toxicology ([4]; clinical, macroscopic and microscopic observation): no clinical toxicology was observed | MIC ([5]; Series 2, dark): 0.0955 µg/mL | MIC ([5]; Staphylococcus aureus, Series 1, dark, read-out: MIC): 0.0955 µg/mL | MBC ([5]; Staphylococcus aureus, absence of light): 0.382 µg/mL | MIC ([5]; Staphylococcus aureus, absence of light, 24 hours incubation at 37° C., read-out: MIC): 0.0955 µg/mL | MIC ([6]; 24 h, EMRSA-16, clinical isolate, dark 24 hours): 0.5 µg/mL | MIC ([6]; ATCCBAA44, 24 h, ATCC BAA-44 Experiment 1, dark 24 hours): 0.5 µg/mL | MIC ([6]; ATCCBAA44, 24 h, ATCC BAA-44 Experiment 2, dark 24 hours): 0.5 µg/mL | MIC ([6]; ATCCBAA44, 24 h, ATCC BAA-44 Experiment 3, dark 24 hours): 2 µg/mL | MIC ([6]; ATCCBAA44, 24 h, ATCC BAA-44 Experiment 4, dark 24 hours): 0.5 µg/mL | MIC ([6]; ATCCBAA44, 24 h, ATCC BAA-44 Experiment 5, dark 24 hours): 0.5 µg/mL | MIC ([6]; ATCCBAA44, 24 h, ATCC BAA-44 Experiment 6, dark 24 hours): 0.5 µg/mL | MBC ([6]; ATCCBAA44, ATCC BAA-44 Experiment 1): 0.5 µg/mL | MBC ([6]; ATCCBAA44, ATCC BAA-44 Experiment 2): 1 µg/mL | MBC ([6]; ATCCBAA44, ATCC BAA-44 Experiment 3): 2 µg/mL | MBC ([6]; ATCCBAA44, ATCC BAA-44 Experiment 4): 1 µg/mL | MBC ([6]; ATCCBAA44, ATCC BAA-44 Experiment 5): > 1 µg/mL | MBC ([6]; ATCCBAA44, ATCC BAA-44 Experiment 6): 1 µg/mL | MBC ([6]; EMRSA-15, clinical isolate): 1 µg/mL | MBC ([6]; EMRSA-16, clinical isolate): 0.5 µg/mL | MIC ([6]; NCTC11939, 24 h, NCTC 11939 (EMRSA-1), dark 24 hours): 0.5 µg/mL | MBC ([6]; NCTC11939, NCTC 11939 (EMRSA-1)): 0.5 µg/mL | innate toxicity (MTT cell viability) [7]: does not demonstrate an innate toxicity | innate toxicity (MTT cell viability) [8]: does not demonstrate an innate toxicity

C[n+]1ccc(-c2c3nc(c(-c4cc[n+](C)cc4)c4ccc([nH]4)c(-c4cc[n+](C)cc4)c4nc(c(-c5cc[n+](C)cc5)c5ccc2[nH]5)C=C4)C=C3)cc1 [Compound T4MPyP, 5,10,15,20-tetrakis-(4-N-methylpyridyl)-porphine]
inactivation of Escherichia coli (Escherichia coli): efficiently inactivated
